Results taken from ChEMBL document CHEMBL1147259, “The structure of Palau'amide, a potent cytotoxin from a species of the marine cyanobacterium Lyngbya” (J Nat Prod, 2003).

Test system: KB
Experiment: Cytotoxicity against human KB cells
Type: functional, cell-based

C#CCCC[C@@H](O)[C@@H](C)[C@@H]1C/C=C(\C)C(=O)O[C@H](CC(C)C)C(=O)N[C@@H](C)C(=O)N(C)[C@H](Cc2ccccc2)C(=O)N(C)CC(=O)N[C@H]([C@H](C)CC)C(=O)N(C)[C@@H](C)C(=O)O1 [PALAU'AMIDE]
IC50: 13 nM
